Assay results as given in patent US12599597B2, “Substituted N-benzhydrylacetamide inhibitors of jumanji domain histone demethylases for the treatment of cancer” (University of Kentucky Research Foundation, priority 2020, dated 2026).

How the values were obtained:
Assay type in all cases: cell-based
[1] = tested on: H3K9Me2 on the promoter of c-Myc gene; assay: ChIP assay followed by qPCR
Source text: CBA-1 increased repressive histone methylation on Wnt target genes. The present inventors reported that mutations in APC or β-catenin N-terminal phosphorylation sites prevented β-catenin degradation in CRC cells. […] Because CBA-1 inhibited Wnt signaling in CRC cells, it was reasonable to assume that it inhibited Wnt signaling downstream of β-catenin, most likely by blocking β-catenin activity in the nucleus. Consequently, the present inventors hypothesized that CBA-1 inhibited Wnt signaling epigenetically by altering chromatin remodeling, and they probed the effects of CBA-1 on histone methylation in CRC cells.

[2] = tested on: Wnt target genes in LS174T colon cancer cells; assay: Western blotting of Wnt target genes in colon cancer cells
Source text: The activities of 58B1 were validated by western blotting.
Identification of a CBA-1 as a novel Wnt inhibitor. The present inventors routinely use TOPFlash reporter assay for Wnt inhibitor screening. To mimic the constitutively active Wnt signaling found in CRC cells, Wnt signaling was activated by inhibiting GSK3 and stabilizing β-catenin. From screening in house small-molecule libraries, CBA-1 (FIG. 4) was identified that inhibited Wnt signaling in TOPFlash reporter assay. To validate the screening results, CBA-1 was tested in CRC cells.

CRC cells = assay: CRC cell proliferation
Source text: KDM3A is a Jumonji domain-containing demethylase that regulates the demethylation of histone H3's lysine 9 (H3K9Me^2).

Structure (SMILES): CCCC(=O)NC(c1ccc(N(CC)CC)cc1)c1cc(Cl)c2cccnc2c1O (stereo not shown) [58B1]
- levels of H3K9Me2 on the promoter of c-Myc gene ([1]; ChIP, qPCR): increased
- active markers H3K9Ac and H3K4Me^3 on the promoter of Wnt target genes in CRC cells ([1]; expected): decrease
- repressive marker H3K9Me^2 on the promoter of Wnt target genes in CRC cells ([1]; expected): increase
- expression of Wnt target genes ([2]; 5 μM, LS174T, western blotting): strongly inhibited
- expression of Wnt target genes ([2]; CRC cells (LS174T), concentration not given): repressed
- CRC cell proliferation (CRC cells; at 100 nM concentration): inhibited
- sensitivity of CRC cells compared with normal colon cells (CRC cells; expected): more sensitive
